Target: T1, human mGlu2 receptor (Homo sapiens, UniProt Q14416)
T1 construct: V5/His (named only as part of the vector); expressed in transfected cells; host or cells: HEK293
Assay: FLIPR intracellular Ca2+ assay, potentiation of 1 μM glutamate in HEK293 cells expressing hmGlu2, rGLAST and Galpha16
Format: cell-based
Conditions: HEK293 hmGlu2 clone
Excerpt: The compounds of the present invention can be tested e.g. by evaluating intracellular Ca^2+ concentrations in cells permanently expressing human mGlu receptor, the rat glutamate transporter rGLAST and the Galpha16 subunit of the G-protein complex under standard conditions in a fluorometric imaging plate reader (FLIPR, Molecular Devices, Union City, Calif. 94587, USA) by measuring the response of the cells to a test compound in the absence of presence of glutamate. The FLIPR assay is a common functional assay to monitor native or recombinant Galphaq-coupled receptors, and native or recombinant receptors normally linked to other G-protein signalling cascades, which are coupled to calcium through co-expression of an alpha subunit of a promiscuous or chimeric G-protein. In the assay the increase of intracellular calcium is measured through a calcium-dependent fluorescent dye (e.g. Fluo-4 AM) in the FLIPR instrument.
For the purpose of the present study, a cell line permanently expressing a human mGlu receptor, such as the mGlu2 receptor, the rat glutamate transporter rGLAST and the GalphaG16 may be generated by transfection as described in the examples. For selection of a suitable cell clone and also the subsequent measurements, the selected clone the cells will be plated on suitable multiwell plates in a suitable medium (e.g. DMEM Glutamax (GIBCO # 21885-025)/10% dialyzed FCS). Cells may be selected by gentamycin treatment as described in the examples. Cells will then be loaded with a suitable Ca^2+ sensitive fluorescence dye, e.g. with 2 μM Fluo-4 AM (Molecular Probes, F14201). Cells will then be washed with a suitable buffer (e.g. HEPES) and the thus treated plates will be measured in a fluorometric imaging plate reader (e.g. FLIPR, Molecular Devices, Union City, Calif. 94587, USA).
The compounds of the present invention were tested in the above-described FLIPR assay using the selected cell clone. Increased intracellular calcium levels were quantified following addition of test compound (agonism), as well as following addition of a submaximal concentration of glutamate (potentiation).
For the determination of the effect of the test compound by itself (agonism) or by increasing the response to a submaximal concentration (e.g. 1 μM) of glutamate (potentiation), the resulting signal is determined by subtraction of the background fluorescence from the maximal fluorescent peak height of the respective response. In the FLIPR instrument the compound is given to the cell and its fluorescence response quantified by the FLIPR instrument (agonism). The concentration at which the compound exerts half its maximal effect is named the ‘effective concentration 50’ or ‘EC50’. The maximal effect induced by the test substance is normalized to the maximal effect exerted by 100 μM glutamate (set at 100%).
After addition of the test compound to the plate, a submaximal concentration of glutamate (e.g. 1 μM glutamate) will be added. A potentiator enhances the response of the receptor to glutamate. The response to glutamate in the presence of test compound is quantified. The concentration at which the test compound is able to exert half its maximal potentiation effect to glutamate is named the ‘EC50’. The maximal response to the submaximal concentration of glutamate (e.g. 1 micromolar glutamate) in the presence of test compound is normalized to the maximal effect exerted by 100 micromolar glutamate (set at 100%). Least squares curve fitting with a four-parameter equation is then applied to the resulting dose-response curve to determine the resulting EC50 values (Graph Pad Prism).
For the purpose of the present study, a cell line permanently expressing the human mGlu2 receptor, the rat glutamate transporter rGLAST and the alpha subunit of G16 was generated by transfection. […]

T1 sequence (Q14416 19-872): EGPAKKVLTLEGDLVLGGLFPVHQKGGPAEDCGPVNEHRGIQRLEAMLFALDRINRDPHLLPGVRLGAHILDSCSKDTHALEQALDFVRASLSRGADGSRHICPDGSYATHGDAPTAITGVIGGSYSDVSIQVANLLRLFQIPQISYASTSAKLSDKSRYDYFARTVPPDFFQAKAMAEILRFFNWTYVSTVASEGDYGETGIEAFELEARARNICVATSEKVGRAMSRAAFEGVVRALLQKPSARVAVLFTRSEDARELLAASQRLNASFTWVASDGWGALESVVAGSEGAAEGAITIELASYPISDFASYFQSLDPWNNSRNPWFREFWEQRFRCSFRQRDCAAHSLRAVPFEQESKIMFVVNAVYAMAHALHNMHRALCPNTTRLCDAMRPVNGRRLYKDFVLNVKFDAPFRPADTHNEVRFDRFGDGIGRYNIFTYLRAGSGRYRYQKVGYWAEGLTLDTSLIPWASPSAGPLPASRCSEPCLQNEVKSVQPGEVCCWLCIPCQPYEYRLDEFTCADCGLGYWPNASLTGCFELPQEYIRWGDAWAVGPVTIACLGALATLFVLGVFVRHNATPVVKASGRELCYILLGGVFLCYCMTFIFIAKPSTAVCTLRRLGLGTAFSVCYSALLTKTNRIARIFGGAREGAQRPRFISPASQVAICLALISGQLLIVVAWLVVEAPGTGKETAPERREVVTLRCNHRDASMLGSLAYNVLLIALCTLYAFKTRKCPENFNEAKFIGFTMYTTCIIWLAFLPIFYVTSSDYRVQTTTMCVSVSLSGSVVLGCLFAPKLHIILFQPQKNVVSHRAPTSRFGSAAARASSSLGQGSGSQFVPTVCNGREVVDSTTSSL

SMILES | EC50 [µM]
CCCCN1Cc2cc(NCc3ccc(Cl)nc3OC)ccc2C1=O [Example 36, 2-butyl-5-{[(6-chloro-2-methoxypyridin-3-yl)methyl]amino}-2,3-dihydro-1H-isoindol-1-one] | 0.5 to 2
CCCCN1Cc2cc(NCc3cnccc3NCc3ccccc3)ccc2C1=O [Example 42, 5-((4-(benzylamino)pyridin-3-yl)methylamino)-2-butylisoindolin-1-one] | 2 to 10
CCCN1Cc2cc(OCc3cnccc3NC(=O)OC(C)(C)C)ccc2C1=O [Example 8, [3-(1-oxo-2-propyl-2,3-dihydro-1H-isoindol-5-yloxymethyl)-pyridin-4-yl]-carbamic acid tert-butyl ester] | 2 to 10
CCCCN1Cc2cc(NCc3cnccc3NC(=O)C(C)(C)C)ccc2C1=O [Example 43, N-(3-((2-butyl-1-oxoisoindolin-5-ylamino)methyl)pyridin-4-yl)pivalamide] | 0.5 to 2
CCCCN1Cc2cc(NCc3cnccc3N3CCN(C)CC3)ccc2C1=O [Example 26, 2-butyl-5-({[4-(4-methylpiperazin-1-yl)pyridin-3-yl]methyl}amino)-2,3-dihydro-1H-isoindol-1-one] | 2 to 10
CCCCN1Cc2cc(NCc3cccnc3)ccc2C1=O [Example 22, 2-butyl-5-[(pyridin-3-ylmethyl)amino]-2,3-dihydro-1H-isoindol-1-one] | 2 to 10
CCCCN1Cc2cc(NCc3ccc(OC)nc3Cl)ccc2C1=O [Example 37, 2-butyl-5-{[(2-chloro-6-methoxypyridin-3-yl)methyl]amino}-2,3-dihydro-1H-isoindol-1-one] | 0.5 to 2
CCCCN1Cc2cc(NCc3ccc(Br)nc3Cl)ccc2C1=O [Example 34, 5-{[(6-bromo-2-chloropyridin-3-yl)methyl]amino}-2-butyl-2,3-dihydro-1H-isoindol-1-one] | 0.5 to 2
CCCCN1Cc2cc(NCc3cccnc3Cl)ccc2C1=O [Example 38, 2-butyl-5-{[(2-chloropyridin-3-yl)methyl]amino}-2,3-dihydro-1H-isoindol-1-one] | 2 to 10
CCCCN1Cc2cc(NCc3cnccc3-c3ccccc3)ccc2C1=O [Example 15, 2-butyl-5-((4-phenylpyridin-3-yl)methylamino)isoindolin-1-one] | < 0.5
CCCCN1Cc2cc(NCc3cnccc3N3CCOCC3)ccc2C1=O [Example 25, 2-butyl-5-({[4-(morpholin-4-yl)pyridin-3-yl]methyl}amino)-2,3-dihydro-1H-isoindol-1-one] | 0.5 to 2
O=C1c2c(Cl)cc(NCc3c(C(F)(F)F)ccnc3Cl)cc2CN1C1CC1 [Example 24, 7-chloro-5-({[2-chloro-4-(trifluoromethyl)pyridin-3-yl]methyl}amino)-2-cyclopropyl-2,3-dihydro-1H-isoindol-1-one] | < 0.5
CCCN1Cc2cc(OCc3cnccc3Oc3ccccc3)ccc2C1=O [Example 3, 5-((4-phenoxypyridin-3-yl)methoxy)-2-propylisoindolin-1-one] | 0.5 to 2
COCCN1Cc2cc(NCc3c(C(F)(F)F)ccnc3Cl)cc(C)c2C1=O [Example 39] | 0.5 to 2
CCCCN1Cc2cc(NCc3c(C)ccnc3Cl)ccc2C1=O [Example 33, 2-butyl-5-{[(2-chloro-4-methylpyridin-3-yl)methyl]amino}-2,3-dihydro-1H-isoindol-1-one] | 0.5 to 2
CCCN1Cc2cc(OCc3cnccc3-c3ccccc3)ccc2C1=O [Example 6, 5-(4-Phenyl-pyridin-3-ylmethoxy)-2-propyl-2,3-dihydro-isoindol-1-one] | < 0.5
CCCCN1Cc2cc(NCc3cnccc3Nc3ccccc3)ccc2C1=O [Example 19, 2-butyl-5-((4-(phenylamino)pyridin-3-yl)methylamino)isoindolin-1-one] | 0.5 to 2
CCN1Cc2cc(OCc3c(-c4ccccc4)cc(C)nc3C)ccc2C1=O [Example 11, 5-(2,6-Dimethyl-4-phenyl-pyridin-3-ylmethoxy)-2-ethyl-2,3-dihydroisoindol-1-one] | < 0.5
CCCCN1Cc2cc(OCc3c(-c4ccccc4)cc(C)nc3C)ccc2C1=O [Example 1, 2-butyl-5-((2,6-dimethyl-4-phenylpyridin-3-yl)methoxy)isoindolin-1-one] | < 0.5
CCCCN1Cc2cc(NCc3cnccc3C(F)(F)F)ccc2C1=O [Example 14, 2-butyl-5-((4-(trifluoromethyl)pyridin-3-yl)methylamino)isoindolin-1-one] | < 0.5

Continued, values first:

EC50 [µM] | SMILES
< 0.5 | CCCCN1Cc2cc(NCc3cnccc3-c3ccc(C#N)cc3)ccc2C1=O [Example 20, 4-(3-((2-butyl-1-oxoisoindolin-5-ylamino)methyl)pyridin-4-yl)benzonitrile]
< 0.5 | CCCCN1Cc2cc(OCc3c(-c4ccccc4)ccnc3Cl)ccc2C1=O [Example 4, 2-butyl-5-((2-chloro-4-phenylpyridin-3-yl)methoxy)isoindolin-1-one]
< 0.5 | CCCCN1Cc2cc(OCc3c(I)ccnc3Cl)ccc2C1=O [Example 5, 2-butyl-5-((2-chloro-4-iodopyridin-3-yl)methoxy)isoindolin-1-one]
< 0.5 | CCCCN1Cc2cc(NCc3c(Cl)ccnc3Cl)ccc2C1=O [Example 35, 2-butyl-5-{[(2,4-dichloropyridin-3-yl)methyl]amino}-2,3-dihydro-1H-isoindol-1-one]
< 0.5 | Cc1cc(-c2ccccc2)c(COc2ccc3c(c2)CN(CCOC(F)(F)F)C3=O)c(C)n1 [Example 2, 5-((2,6-dimethyl-4-phenylpyridin-3-yl)methoxy)-2-(2-(trifluoromethoxy)ethyl)isoindolin-1-one]
< 0.5 | Cc1cc(-c2ccccc2)c(CNc2cc(Cl)c3c(c2)CN(C2CC2)C3=O)c(C)n1 [Example 23, 7-chloro-2-cyclopropyl-5-{[(2,6-dimethyl-4-phenylpyridin-3-yl)methyl]amino}-2,3-dihydro-1H-isoindol-1-one]
< 0.5 | CCCCN1Cc2cc(NCc3cnccc3Oc3ccccc3)ccc2C1=O [Example 16, 2-butyl-5-((4-phenoxypyridin-3-yl)methylamino)isoindolin-1-one]
< 0.5 | CCCCN1Cc2cc(NCc3cnccc3-c3ccc(C(F)(F)F)cc3)ccc2C1=O [Example 21, 2-butyl-5-((4-(4-(trifluoromethyl)phenyl)pyridin-3-yl)methylamino)-isoindolin-1-one]
< 0.5 | Cc1cc(-c2ccccc2)c(COc2ccc3c(c2)CN(CCOC(F)(F)F)C3=O)c(C)[n+]1[O-] [Example 44, 2,6-dimethyl-3-((1-oxo-2-(2-(trifluoromethoxy)ethyl)-isoindolin-5-yloxy)-methyl)-4-phenylpyridine 1-oxide]
< 0.5 | CCCCN1Cc2cc(NCc3c(-c4ccccc4)cc(C)nc3C)ccc2C1=O [Example 13, 2-butyl-5-((2,6-dimethyl-4-phenylpyridin-3-yl)methylamino)isoindolin-1-one]
< 0.5 | CCCCN1Cc2cc(NCc3c(C(F)(F)F)ccnc3Cl)ccc2C1=O [Example 17, 2-butyl-5-((2-chloro-4-(trifluoromethyl)pyridin-3-yl)methylamino)-isoindolin-1-one]
< 0.5 | O=C1c2ccc(OCc3cnccc3-c3ccccc3)cc2CN1CCOC(F)(F)F [Example 7, 5-(4-Phenyl-pyridin-3-ylmethoxy)-2-(2-trifluoromethoxy-ethyl)-2,3-dihydro-isoindol-1-one]

Source: US8664214B2, “Small molecule potentiators of metabotropic glutamate receptors I” (AbbVie Deutschland GmbH & Co. KG, priority 2010, dated 2014)
